Experimental data published in patent US20130137772A1, “HYDROXYPOLYAMINE SALTS” (priority 2011, published 2013).
Where “and” joins values, the source holds several entries; their conditions need not be identical. Equal entries are not always repeated.

Assay: Tissue distribution and metabolism: polyamine content of kidney, liver and pancreas via HPLC
Type: in vivo, Female CD-1 mice
Experimental: The tissue distribution and metabolism of DEHSPM, (HO)2DEHSPM HCl Salt and (HO)2DEHSPM Mesylate Salt in various organs were evaluated utilizing the following protocol:
Tissue Distribution and Metabolism of DEHSPM, (HO)2DEHSPM HCl Salt and (HO)2DEHSPM Mesylate Salt
• 1) DEHSPM, (HO)2DEHSPM HCl salt, and (HO)2DEHSPM mesylate salt were dissolved in sterile normal saline; the pH was not adjusted. • 2) Female CD-1 mice were given the drugs at equimolar dosages intraperitoneally once daily for 5 days. • 3) The animals, n=3-4 per group, were euthanized 4, 8, or 24 h post-last dose. • 4) The kidney, liver, and pancreas were removed and assessed for their polyamine content via HPLC analysis. • 5) The polyamine concentration data (mean±STD) are expressed as nmol/g wet weight of tissue. SPM, spermine; SPD, spermidine; PUT, putrescine; N.D., not determined. • 6) A one-tailed t test assuming unequal variance was performed on the tissue polyamine concentration data. A value of p<0.05 was considered significant.

[1] = kidney, 4 h post-last dose, HCl salt 20 mg/kg/d IP x 5 d
[2] = kidney, 8 h post-last dose, HCl salt 20 mg/kg/d IP x 5 d
[3] = kidney, 24 h post-last dose, HCl salt 20 mg/kg/d IP x 5 d
[4] = liver, 4 h post-last dose, HCl salt 20 mg/kg/d IP x 5 d
[5] = liver, 8 h post-last dose, HCl salt 20 mg/kg/d IP x 5 d
[6] = liver, 24 h post-last dose, HCl salt 20 mg/kg/d IP x 5 d
[7] = liver, 24 h post-last dose, HCl salt 20 mg/kg/d IP x 5 d, listed as (HO)2DEHSPM•4HCl Salt
[8] = pancreas, 4 h post-last dose, HCl salt 20 mg/kg/d IP x 5 d
[9] = pancreas, 8 h post-last dose, HCl salt 20 mg/kg/d IP x 5 d
[10] = pancreas, 24 h post-last dose, HCl salt 20 mg/kg/d IP x 5 d
[11] = kidney, 4 h post-last dose, mesylate salt 30.3 mg/kg/d IP x 5 d
[12] = kidney, 8 h post-last dose, mesylate salt 30.3 mg/kg/d IP x 5 d
[13] = kidney, 24 h post-last dose, mesylate salt 30.3 mg/kg/d IP x 5 d
[14] = liver, 4 h post-last dose, mesylate salt 30.3 mg/kg/d IP x 5 d
[15] = liver, 8 h post-last dose, mesylate salt 30.3 mg/kg/d IP x 5 d
[16] = liver, 24 h post-last dose, mesylate salt 30.3 mg/kg/d IP x 5 d
[17] = pancreas, 4 h post-last dose, mesylate salt 30.3 mg/kg/d IP x 5 d
[18] = pancreas, 8 h post-last dose, mesylate salt 30.3 mg/kg/d IP x 5 d
[19] = pancreas, 24 h post-last dose, mesylate salt 30.3 mg/kg/d IP x 5 d

Compound: CCNCCC(O)CNCCCCNCC(O)CCNCC.Cl.Cl.Cl.Cl (stereo not shown) [(HO)2DEHSPM HCl Salt]
- (HO)2DEHSPM 4HCl Salt concentration [1]: 852 ± 202 nmol/g wet weight of tissue
- (HO)2HSPM concentration [1]: 50 ± 19 nmol/g wet weight of tissue
- PUT concentration [1]: 31 ± 27 nmol/g wet weight of tissue
- SPD concentration [1]: 327 ± 86 nmol/g wet weight of tissue
- SPM concentration [1]: 544 nmol/g wet weight of tissue
- SPM concentration (kidney, 4 h post-last dose, HCl salt 20 mg/kg/d IP x 5 d, listed as (HO)2DEHSPM•4HCl Salt): 544 ± 14 nmol/g wet weight of tissue
- (HO)2DEHSPM 4HCl Salt concentration [2]: 871 ± 85 nmol/g wet weight of tissue
- (HO)2HSPM concentration [2]: 70 ± 6 nmol/g wet weight of tissue
- PUT concentration [2]: 29 ± 5 nmol/g wet weight of tissue
- SPD concentration [2]: 275 ± 16 nmol/g wet weight of tissue
- SPM concentration [2]: 641 nmol/g wet weight of tissue
- SPM concentration (kidney, 8 h post-last dose, HCl salt 20 mg/kg/d IP x 5 d, listed as (HO)2DEHSPM•4HCl Salt): 641 ± 33 nmol/g wet weight of tissue
- (HO)2DEHSPM 4HCl Salt concentration [3]: 618 ± 82 nmol/g wet weight of tissue
- (HO)2HSPM concentration [3]: 76 ± 7 nmol/g wet weight of tissue
- PUT concentration [3]: 28 ± 6 nmol/g wet weight of tissue
- SPD concentration [3]: 304 ± 30 nmol/g wet weight of tissue
- SPM concentration [3]: 588 nmol/g wet weight of tissue
- SPM concentration (kidney, 24 h post-last dose, HCl salt 20 mg/kg/d IP x 5 d, listed as (HO)2DEHSPM•4HCl Salt): 588 ± 5 nmol/g wet weight of tissue
- (HO)2DEHSPM 4HCl Salt concentration [4]: 248 ± 17 nmol/g wet weight of tissue
- (HO)2HSPM concentration [4]: 70 ± 5 nmol/g wet weight of tissue
- PUT concentration [4]: 0 ± 0 nmol/g wet weight of tissue
- SPD concentration [4]: 1050 ± 9 nmol/g wet weight of tissue
- SPM concentration [4]: 875 nmol/g wet weight of tissue
- SPM concentration (liver, 4 h post-last dose, HCl salt 20 mg/kg/d IP x 5 d, listed as (HO)2DEHSPM•4HCl Salt): 875 ± 128 nmol/g wet weight of tissue
- (HO)2DEHSPM 4HCl Salt concentration [5]: 228 ± 55 nmol/g wet weight of tissue
- (HO)2HSPM concentration [5]: 103 ± 14 nmol/g wet weight of tissue
- PUT concentration [5]: 20 ± 17 nmol/g wet weight of tissue
- SPD concentration [5]: 1175 ± 190 nmol/g wet weight of tissue
- SPM concentration [5]: 1071 nmol/g wet weight of tissue
- SPM concentration (liver, 8 h post-last dose, HCl salt 20 mg/kg/d IP x 5 d, listed as (HO)2DEHSPM•4HCl Salt): 1071 ± 7 nmol/g wet weight of tissue
- (HO)2DEHSPM 4HCl Salt concentration [6]: 136 ±50 nmol/g wet weight of tissue
- (HO)2HSPM concentration [6]: 102 ± 13 nmol/g wet weight of tissue
- PUT concentration [6]: 7 ± 14 nmol/g wet weight of tissue
- SPD concentration [6]: 884 ± 156 nmol/g wet weight of tissue
- SPM concentration [6]: 837 nmol/g wet weight of tissue
- (HO)2DEHSPM 4HCl Salt concentration [7]: 136 ± 50 nmol/g wet weight of tissue
- SPM concentration [7]: 837 ± 13 nmol/g wet weight of tissue
- (HO)2DEHSPM 4HCl Salt concentration [8]: 217 ± 27 nmol/g wet weight of tissue
- (HO)2HSPM concentration [8]: 56 ± 11 nmol/g wet weight of tissue
- PUT concentration [8]: 32 ± 3 nmol/g wet weight of tissue
- SPD concentration [8]: 5868 ± 505 nmol/g wet weight of tissue
- SPM concentration [8]: 1153 nmol/g wet weight of tissue and 1153 ± 159 nmol/g wet weight of tissue
- (HO)2DEHSPM 4HCl Salt concentration [9]: 223 ± 54 nmol/g wet weight of tissue
- (HO)2HSPM concentration [9]: 60 ± 9 nmol/g wet weight of tissue
- PUT concentration [9]: 50 ± 7 nmol/g wet weight of tissue
- SPD concentration [9]: 6343 ± 596 nmol/g wet weight of tissue
- SPM concentration [9]: 1476 nmol/g wet weight of tissue and 1476 ± 101 nmol/g wet weight of tissue
- (HO)2DEHSPM 4HCl Salt concentration [10]: 209 ± 37 nmol/g wet weight of tissue
- (HO)2HSPM concentration [10]: 58 ± 14 nmol/g wet weight of tissue
- PUT concentration [10]: 36 ± 5 nmol/g wet weight of tissue
- SPD concentration [10]: 6386 ± 309 nmol/g wet weight of tissue
- SPM concentration [10]: 1177 nmol/g wet weight of tissue and 1177 ± 161 nmol/g wet weight of tissue

Compound: CCNCCC(O)CNCCCCNCC(O)CCNCC.CS(=O)(=O)O.CS(=O)(=O)O.CS(=O)(=O)O.CS(=O)(=O)O (stereo not shown) [(HO)2DEHSPM Mesylate Salt]
- (HO)2DEHSPM Mesylate concentration [11]: 541 ± 65 nmol/g wet weight of tissue
- (HO)2HSPM concentration [11]: 77 ± 6 nmol/g wet weight of tissue
- PUT concentration [11]: 7 ± 12 nmol/g wet weight of tissue
- SPD concentration [11]: 404 ± 24 nmol/g wet weight of tissue
- SPM concentration [11]: 680 nmol/g wet weight of tissue and 680 ± 15 nmol/g wet weight of tissue
- (HO)2DEHSPM Mesylate concentration [12]: 533 ± 84 nmol/g wet weight of tissue
- (HO)2HSPM concentration [12]: 89 ± 14 nmol/g wet weight of tissue
- PUT concentration [12]: 0 ± 0 nmol/g wet weight of tissue
- SPD concentration [12]: 265 ± 5 nmol/g wet weight of tissue
- SPM concentration [12]: 655 nmol/g wet weight of tissue and 655 ± 41 nmol/g wet weight of tissue
- (HO)2DEHSPM Mesylate concentration [13]: 360 ± 43 nmol/g wet weight of tissue
- (HO)2HSPM concentration [13]: 97 ± 5 nmol/g wet weight of tissue
- PUT concentration [13]: 26 ± 5 nmol/g wet weight of tissue
- SPD concentration [13]: 239 ± 9 nmol/g wet weight of tissue
- SPM concentration [13]: 601 nmol/g wet weight of tissue and 601 ± 29 nmol/g wet weight of tissue
- (HO)2DEHSPM Mesylate concentration [14]: 168 ± 32 nmol/g wet weight of tissue
- (HO)2HSPM concentration [14]: 79 ± 7 nmol/g wet weight of tissue
- PUT concentration [14]: 0 ± 0 nmol/g wet weight of tissue
- SPD concentration [14]: 1044 ± 177 nmol/g wet weight of tissue
- SPM concentration [14]: 908 nmol/g wet weight of tissue and 908 ± 55 nmol/g wet weight of tissue
- (HO)2DEHSPM Mesylate concentration [15]: 135 ± 3 nmol/g wet weight of tissue
- (HO)2HSPM concentration [15]: 116 ± 15 nmol/g wet weight of tissue
- PUT concentration [15]: 0 ± 0 nmol/g wet weight of tissue
- SPD concentration [15]: 1108 ± 146 nmol/g wet weight of tissue
- SPM concentration [15]: 987 nmol/g wet weight of tissue and 987 ± 49 nmol/g wet weight of tissue
- (HO)2DEHSPM Mesylate concentration [16]: 73 ± 11 nmol/g wet weight of tissue
- (HO)2HSPM concentration [16]: 88 ± 5 nmol/g wet weight of tissue
- PUT concentration [16]: 0 ± 0 nmol/g wet weight of tissue
- SPD concentration [16]: 910 ±10 nmol/g wet weight of tissue
- SPM concentration [16]: 807 nmol/g wet weight of tissue and 807 ± 138 nmol/g wet weight of tissue
- (HO)2DEHSPM Mesylate concentration [17]: 131 ± 27 nmol/g wet weight of tissue
- (HO)2HSPM concentration [17]: 50 ± 6 nmol/g wet weight of tissue
- PUT concentration [17]: 36 ± 10 nmol/g wet weight of tissue
- SPD concentration [17]: 5717 ± 426 nmol/g wet weight of tissue
- SPM concentration [17]: 1108 nmol/g wet weight of tissue and 1108 ± 15 nmol/g wet weight of tissue
- (HO)2DEHSPM Mesylate concentration [18]: 153 ± 11 nmol/g wet weight of tissue
- (HO)2HSPM concentration [18]: 70 ± 2 nmol/g wet weight of tissue
- PUT concentration [18]: 57 ± 15 nmol/g wet weight of tissue
- SPD concentration [18]: 6460 ± 280 nmol/g wet weight of tissue
- SPM concentration [18]: 1333 nmol/g wet weight of tissue and 1333 ± 103 nmol/g wet weight of tissue
- (HO)2DEHSPM Mesylate concentration [19]: 134 ± 14 nmol/g wet weight of tissue
- (HO)2HSPM concentration [19]: 75 ± 4 nmol/g wet weight of tissue
- PUT concentration [19]: 31 ± 3 nmol/g wet weight of tissue
- SPD concentration [19]: 6147 ± 223 nmol/g wet weight of tissue
- SPM concentration [19]: 1273 ± 210 nmol/g wet weight of tissue
